Test results taken from ChEMBL document CHEMBL5335844, “Design, synthesis and preliminary biological evaluation of rivastigmine-INDY hybrids as multitarget ligands against Alzheimer's disease by targeting butyrylcholinesterase and DYRK1A/CLK1 kinases” (RSC Med Chem, 2024).

Experiments:
[1] = biological target: Cholinesterase (Equus caballus, UniProt P81908); assay: Inhibition of equine serum BuChE using butyrylthiocholine iodide as substrate preincubated for 5 mins followed by substrate addition and measured every min for 10 mins by Ellman's method; type: cell-free
Sequence of Cholinesterase (P81908 whole entry): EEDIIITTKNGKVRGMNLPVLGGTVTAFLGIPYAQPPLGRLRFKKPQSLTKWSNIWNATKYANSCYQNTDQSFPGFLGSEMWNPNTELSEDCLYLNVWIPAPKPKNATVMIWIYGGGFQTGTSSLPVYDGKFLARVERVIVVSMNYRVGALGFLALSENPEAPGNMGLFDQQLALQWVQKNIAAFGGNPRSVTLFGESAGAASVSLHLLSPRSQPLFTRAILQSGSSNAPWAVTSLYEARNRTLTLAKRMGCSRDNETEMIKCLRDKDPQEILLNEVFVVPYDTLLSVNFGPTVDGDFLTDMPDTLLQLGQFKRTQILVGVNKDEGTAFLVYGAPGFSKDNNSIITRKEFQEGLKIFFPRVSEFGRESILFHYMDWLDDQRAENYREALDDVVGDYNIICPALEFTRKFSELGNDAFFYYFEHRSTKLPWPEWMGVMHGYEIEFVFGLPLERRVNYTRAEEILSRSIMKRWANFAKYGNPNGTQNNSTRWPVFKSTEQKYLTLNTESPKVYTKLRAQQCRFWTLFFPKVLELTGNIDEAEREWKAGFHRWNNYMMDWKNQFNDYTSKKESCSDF

[2] = biological target: T1, Acetylcholinesterase (Homo sapiens, UniProt P22303); assay: Inhibition of human erythrocyte AChE at 10 uM using acetylthiocholine iodide as substrate preincubated for 5 mins followed by substrate addition and measured every min for 10 mins by Ellman's method relative to control; conditions: time 15.0 min
T1 sequence (P22303 whole entry): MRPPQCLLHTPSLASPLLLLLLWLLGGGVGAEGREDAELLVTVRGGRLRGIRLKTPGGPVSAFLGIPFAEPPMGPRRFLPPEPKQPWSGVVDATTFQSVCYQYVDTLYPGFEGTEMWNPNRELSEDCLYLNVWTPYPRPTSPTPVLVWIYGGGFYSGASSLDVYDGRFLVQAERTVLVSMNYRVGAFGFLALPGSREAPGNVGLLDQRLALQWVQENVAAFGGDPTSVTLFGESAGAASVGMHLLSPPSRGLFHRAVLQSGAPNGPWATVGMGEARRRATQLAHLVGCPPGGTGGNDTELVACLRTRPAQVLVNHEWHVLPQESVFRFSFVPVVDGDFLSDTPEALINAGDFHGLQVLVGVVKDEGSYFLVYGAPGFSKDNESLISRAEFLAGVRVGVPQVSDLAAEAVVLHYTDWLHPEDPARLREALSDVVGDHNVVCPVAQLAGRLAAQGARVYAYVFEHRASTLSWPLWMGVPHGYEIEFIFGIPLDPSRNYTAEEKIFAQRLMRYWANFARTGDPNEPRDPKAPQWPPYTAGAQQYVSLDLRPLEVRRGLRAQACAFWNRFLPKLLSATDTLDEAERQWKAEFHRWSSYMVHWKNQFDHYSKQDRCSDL

[3] = biological target: T1, Acetylcholinesterase; assay: Inhibition of human erythrocyte AChE using acetylthiocholine iodide as substrate preincubated for 5 mins followed by substrate addition and measured every min for 10 mins by Ellman's method
[4] = biological target: T2, Dual specificity protein kinase CLK1 (Homo sapiens, UniProt P49759); assay: Inhibition of human CLK1 at 10 uM using ERMRPRKRQGSVRRRV as substrate incubated for 40 mins in presence of Mg/[gamma-33P]-ATP by scintillation counting method relative to control
Target sequence in this assay (P49759 whole entry, looked up): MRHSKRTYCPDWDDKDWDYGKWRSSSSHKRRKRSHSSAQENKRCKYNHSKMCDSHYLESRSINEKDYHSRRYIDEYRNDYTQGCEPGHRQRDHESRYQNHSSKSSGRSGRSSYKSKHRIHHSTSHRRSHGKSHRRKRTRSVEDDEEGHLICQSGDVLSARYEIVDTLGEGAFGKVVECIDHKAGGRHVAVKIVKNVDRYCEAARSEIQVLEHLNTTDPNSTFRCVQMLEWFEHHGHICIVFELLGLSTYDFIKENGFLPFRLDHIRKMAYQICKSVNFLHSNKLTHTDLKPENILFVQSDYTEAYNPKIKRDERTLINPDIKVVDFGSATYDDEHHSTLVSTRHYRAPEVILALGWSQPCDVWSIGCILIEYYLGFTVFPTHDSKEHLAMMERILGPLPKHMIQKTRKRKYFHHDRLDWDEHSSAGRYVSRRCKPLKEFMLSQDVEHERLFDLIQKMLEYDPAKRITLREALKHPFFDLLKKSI

[5] = biological target: T3, Dual specificity tyrosine-phosphorylation-regulated kinase 1A (Homo sapiens, UniProt Q13627); assay: Inhibition of human DYRK1A at 10 uM using RRRFRPASPLRGPPK as substrate incubated for 40 mins in presence of Mg/[gamma-33P]-ATP by scintillation counting method relative to control
[6] = biological target: T2, Dual specificity protein kinase CLK1; assay: Inhibition of human CLK1 using ERMRPRKRQGSVRRRV as substrate incubated for 40 mins in presence of Mg/[gamma-33P]-ATP by scintillation counting method
Target sequence in this assay (P49759 whole entry): as the sequence (P49759 whole entry, looked up) above

[7] = biological target: T3, Dual specificity tyrosine-phosphorylation-regulated kinase 1A; assay: Inhibition of human DYRK1A using RRRFRPASPLRGPPK as substrate incubated for 40 mins in presence of Mg/[gamma-33P]-ATP by scintillation counting method
[8] = biological target: Cholinesterase (Equus caballus) (UniProt P81908); assay: Inhibition of equine serum BuChE at 10 uM using butyrylthiocholine iodide as substrate preincubated for 5 mins followed by substrate addition and measured every min for 10 mins by Ellman's method relative to control; type: cell-free; conditions: time 15.0 min
Sequence of Cholinesterase (Equus caballus) (P81908 whole entry): as the sequence (P81908 whole entry) above

[9] = Chromatographic hydrophobicity index, logD of the compound at pH 7.4 by reversed phase HPLC analysis; type: physicochemical; conditions: buffer
[10] = Solubility of the compound in PBS at pH 7.4 by HPLC analysis; type: physicochemical; conditions: buffer

## CCCCCCCNC(=O)Oc1ccc2c(c1)N(Cc1ccc3ccccc3c1)/C(=C/C(C)=O)S2
[1]
  IC50: > 10000 nM

## CCCCCCCNC(=O)Oc1ccc2c(c1)N(CC)/C(=C/C(C)=O)S2
[1]
  IC50: 1640 nM

## CCCCCCNC(=O)Oc1ccc2c(c1)N(Cc1ccccc1)/C(=C/C(C)=O)S2
[1]
  IC50: 470 nM
[2]
  inhibition: < 10%

## CCCCCCCNC(=O)Oc1ccc2c(c1)N(Cc1ccc(Cl)cc1)/C(=C/C(C)=O)S2
[1]
  IC50: 821 nM

## CCN1/C(=C/C(C)=O)Sc2ccc(OC(=O)NCCc3ccccc3)cc21
[1]
  IC50: 6000 nM
[3]
  IC50: 20 µM

## CCN1/C(=C/C(C)=O)Sc2ccc(OC(=O)NCc3cccnc3)cc21
[1]
  IC50: 12000 nM
[3]
  IC50: 34 µM

## CC(=O)/C=C1\Sc2ccc(O)cc2N1Cc1ccc2ccccc2c1
[4]
  inhibition: 72%
[5]
  inhibition: 24%

## CC(=O)/C=C1\Sc2ccc(O)cc2N1CCc1ccccc1
[6]
  IC50: 17 nM
[7]
  IC50: 106 nM

## CC(=O)/C=C1\Sc2ccc(O)cc2N1Cc1ccccc1
[6]
  IC50: 54 nM
[7]
  IC50: 529 nM

## CCCCNC(=O)Oc1ccc2c(c1)N(Cc1ccccc1)/C(=C/C(C)=O)S2
[1]
  IC50: > 10000 nM
[8]
  inhibition: 22%

## CCN1/C(=C/C(C)=O)Sc2ccc(OC(=O)NC3CCCCC3)cc21
[1]
  IC50: 13000 nM
[3]
  IC50: 11 µM

## CCCCCCCNC(=O)Oc1ccc2c(c1)N(CCc1ccccc1)/C(=C/C(C)=O)S2
[1]
  IC50: 26.7 nM
[2]
  inhibition: < 10%
[9]
  chromatographic logD: 4.36

## CCN1/C(=C/C(C)=O)Sc2ccc(OC(=O)N(C)C)cc21
[1]
  IC50: > 10000 nM
[8]
  inhibition: 25%

## CCCCCCCNC(=O)Oc1ccc2c(c1)N(Cc1ccccc1)/C(=C/C(C)=O)S2
[1]
  IC50: 154 nM
[2]
  inhibition: < 10%

## CCCCCCCNC(=O)Oc1ccc2c(c1)N(Cc1cccc(C)c1)/C(=C/C(C)=O)S2
[1]
  IC50: 761 nM

## CC(=O)/C=C1\Sc2ccc(O)cc2N1Cc1cccc(Cl)c1
[6]
  IC50: 33 nM
[7]
  IC50: 885 nM

## CCCCCCCNC(=O)Oc1ccc2c(c1)N(Cc1cccc(Cl)c1)/C(=C/C(C)=O)S2
[1]
  IC50: 703 nM

## CCCCCCCNC(=O)Oc1ccc2c(c1)N(Cc1cccc(OC)c1)/C(=C/C(C)=O)S2
[1]
  IC50: 2190 nM

## CCN(C)C(=O)Oc1ccc2c(c1)N(Cc1ccccc1)/C(=C/C(C)=O)S2
[1]
  IC50: 68 nM
[10]
  solubility: Soluble
[2]
  inhibition: < 10%
[9]
  chromatographic logD: 3

## CCN(C)C(=O)Oc1ccc2c(c1)N(CCc1ccccc1)/C(=C/C(C)=O)S2
[1]
  IC50: 439 nM
[2]
  inhibition: < 10%

## CCCCCCNC(=O)Oc1ccc2c(c1)N(CC)/C(=C/C(C)=O)S2
[1]
  IC50: 2000 nM
[3]
  IC50: 14 µM

## CC(=O)/C=C1\Sc2ccc(O)cc2N1Cc1cccc(C)c1
[6]
  IC50: 39 nM
[7]
  IC50: 429 nM

## CC(=O)/C=C1\Sc2ccc(O)cc2N1Cc1ccc(Cl)cc1
[6]
  IC50: 40 nM
[5]
  inhibition: 75%

## COc1cccc(CN2/C(=C/C(C)=O)Sc3ccc(O)cc32)c1
[6]
  IC50: 76 nM
[7]
  IC50: 883 nM
